Experimental findings from ChEMBL document CHEMBL4312034, “Virtual screening-driven discovery of dual 5-HT6/5-HT2A receptor ligands with pro-cognitive properties” (Eur J Med Chem, 2020) are described below.

pIC50, pKi: −log10 of the molar value. Calls of active or inactive are those of the source.

Data set [1] addresses T1, 5-hydroxytryptamine receptor 6 (Homo sapiens, UniProt P50406). The data set is described as follows: Displacement of [3H]-LSD from human 5-HT6R expressed in HEK293 cells after 1 hr by microbeta plate reader analysis. It is filed as cell-based. (Displacement assays read how much labelled ligand stays bound in the presence of the test substance.)
Data set [2] has as its target T2, 5-hydroxytryptamine receptor 2A (Homo sapiens, UniProt P28223). The data set is described as follows: Binding affinity to human 5-HT2AR expressed in HEK293 cells by competitive binding assay. The data set is classed as cell-based.
The target of data set [3] is T3, 5-hydroxytryptamine receptor 1A (Homo sapiens, UniProt P08908).
T3 sequence (P08908 whole entry): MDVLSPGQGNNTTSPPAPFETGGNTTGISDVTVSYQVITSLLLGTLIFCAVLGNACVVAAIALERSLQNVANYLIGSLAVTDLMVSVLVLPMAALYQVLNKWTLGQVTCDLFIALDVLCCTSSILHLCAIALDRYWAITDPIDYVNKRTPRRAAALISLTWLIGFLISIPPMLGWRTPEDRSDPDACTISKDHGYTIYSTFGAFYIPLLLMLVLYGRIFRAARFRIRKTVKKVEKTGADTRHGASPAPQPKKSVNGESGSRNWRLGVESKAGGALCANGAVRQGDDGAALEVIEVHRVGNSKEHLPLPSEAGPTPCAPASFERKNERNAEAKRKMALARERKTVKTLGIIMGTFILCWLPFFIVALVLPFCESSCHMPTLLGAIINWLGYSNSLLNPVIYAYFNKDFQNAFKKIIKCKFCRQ
The data set can be described thus: Displacement of [3H]-8-OH-DPAT from human 5-HT1A receptor expressed in HEK293 cells after 1 hr by microbeta plate reader analysis. The data set is classed as cell-based.

The target of data set [4] is 5-hydroxytryptamine receptor 7 (Homo sapiens, UniProt P34969). The data set can be described thus: Displacement of [3H]-CT from human 5-HT7 receptor expressed in HEK293 cells after 1 hr by microbeta plate reader analysis. The data set is classed as cell-based.
5-hydroxytryptamine receptor 7, sequence (P34969 whole entry): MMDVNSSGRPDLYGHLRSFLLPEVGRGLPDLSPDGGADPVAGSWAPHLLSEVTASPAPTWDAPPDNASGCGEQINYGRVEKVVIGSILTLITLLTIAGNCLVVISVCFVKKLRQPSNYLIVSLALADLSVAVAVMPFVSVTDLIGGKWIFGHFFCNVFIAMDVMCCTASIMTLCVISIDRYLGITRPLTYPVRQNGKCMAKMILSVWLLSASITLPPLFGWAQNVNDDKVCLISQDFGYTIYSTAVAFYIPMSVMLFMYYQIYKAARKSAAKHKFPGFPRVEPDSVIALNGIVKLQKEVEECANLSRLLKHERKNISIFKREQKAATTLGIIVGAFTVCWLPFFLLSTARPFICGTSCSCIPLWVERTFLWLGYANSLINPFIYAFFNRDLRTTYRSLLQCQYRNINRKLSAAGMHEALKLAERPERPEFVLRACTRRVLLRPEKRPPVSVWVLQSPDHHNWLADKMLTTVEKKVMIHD
In data set [5] the target is D(2) dopamine receptor (Homo sapiens, UniProt P14416). The data set can be described thus: Displacement of [3H]-raclopride from human D2R expressed in HEK293 cells after 1 hr by microbeta plate reader analysis. The data set is classed as cell-based.
For data set [6], the target named is T4, 5-HT2C receptor (Homo sapiens, UniProt P28335).
T4 sequence (P28335 whole entry): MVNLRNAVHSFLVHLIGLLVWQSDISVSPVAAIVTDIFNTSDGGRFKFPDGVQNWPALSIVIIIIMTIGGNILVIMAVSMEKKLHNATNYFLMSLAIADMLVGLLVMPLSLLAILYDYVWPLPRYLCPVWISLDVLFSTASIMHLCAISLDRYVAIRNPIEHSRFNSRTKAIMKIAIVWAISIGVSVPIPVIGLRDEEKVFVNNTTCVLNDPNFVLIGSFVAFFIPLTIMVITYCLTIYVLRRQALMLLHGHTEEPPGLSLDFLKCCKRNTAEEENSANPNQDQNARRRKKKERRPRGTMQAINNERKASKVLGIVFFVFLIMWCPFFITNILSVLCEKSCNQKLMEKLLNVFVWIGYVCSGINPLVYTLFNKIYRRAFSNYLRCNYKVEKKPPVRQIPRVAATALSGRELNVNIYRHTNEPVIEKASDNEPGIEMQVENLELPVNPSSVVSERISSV
The data set can be described thus: Inhibition of 5-HT2C receptor (unknown origin) at 10^-6 M relative to control.

Data set [7] can be described thus: Half life in rat liver microsomes up to 60 mins by HPLC-LC/MS analysis. A general note: Microsomes from liver hold many membrane-bound enzymes, among them those of drug oxidation.
A short description of data set [8]: in vitro. The following applies: rat.
For data set [9], the target named is T1, 5-hydroxytryptamine receptor 6. The data set is described as follows: Antagonist activity at human 5-HT6 receptor expressed in HEK293 cells assessed as inhibition of 5-CT induced cAMP production incubated for 30 mins by TR-FRET assay. It is filed as functional, cell-based. For orientation: cAMP levels reflect the balance of adenylyl cyclase and phosphodiesterase activity.

For data set [10], the target named is 5-hydroxytryptamine receptor 2B (Homo sapiens) (UniProt P41595). The data set is described as follows: Displacement of [3H]-Mesulergine from recombinant human 5-HT2B receptor at 10^-6 M after 60 mins by radiometric scintillation analysis relative to control.
5-hydroxytryptamine receptor 2B (Homo sapiens), sequence (P41595 whole entry): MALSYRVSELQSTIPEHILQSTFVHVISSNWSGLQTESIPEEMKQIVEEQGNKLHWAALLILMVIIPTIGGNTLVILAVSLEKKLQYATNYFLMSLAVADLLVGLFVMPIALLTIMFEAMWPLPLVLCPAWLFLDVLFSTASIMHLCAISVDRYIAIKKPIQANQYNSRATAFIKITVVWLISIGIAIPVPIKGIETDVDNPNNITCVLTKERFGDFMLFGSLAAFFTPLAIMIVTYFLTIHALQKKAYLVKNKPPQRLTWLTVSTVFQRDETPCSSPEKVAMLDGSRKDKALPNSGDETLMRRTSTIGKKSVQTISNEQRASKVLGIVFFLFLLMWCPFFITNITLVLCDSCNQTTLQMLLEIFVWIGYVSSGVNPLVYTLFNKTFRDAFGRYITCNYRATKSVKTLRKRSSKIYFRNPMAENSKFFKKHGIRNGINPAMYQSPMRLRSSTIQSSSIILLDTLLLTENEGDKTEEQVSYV
Data set [11] has as its target T2, 5-hydroxytryptamine receptor 2A. The data set is described as follows: Displacement of [3H]-Ketanserin from recombinant human 5-HT2A receptor at 10^-6 M after 60 mins by radiometric scintillation counting analysis relative to control.
Data set [12] has the same target. The data set is described as follows: Displacement of [3H]-Ketanserin from recombinant human 5-HT2A receptor at 10^-7 M after 60 mins by radiometric scintillation counting analysis relative to control.
The target in data set [13] is T5, Alpha-1A adrenergic receptor (Homo sapiens) (UniProt P35348).
T5 sequence (whole entry): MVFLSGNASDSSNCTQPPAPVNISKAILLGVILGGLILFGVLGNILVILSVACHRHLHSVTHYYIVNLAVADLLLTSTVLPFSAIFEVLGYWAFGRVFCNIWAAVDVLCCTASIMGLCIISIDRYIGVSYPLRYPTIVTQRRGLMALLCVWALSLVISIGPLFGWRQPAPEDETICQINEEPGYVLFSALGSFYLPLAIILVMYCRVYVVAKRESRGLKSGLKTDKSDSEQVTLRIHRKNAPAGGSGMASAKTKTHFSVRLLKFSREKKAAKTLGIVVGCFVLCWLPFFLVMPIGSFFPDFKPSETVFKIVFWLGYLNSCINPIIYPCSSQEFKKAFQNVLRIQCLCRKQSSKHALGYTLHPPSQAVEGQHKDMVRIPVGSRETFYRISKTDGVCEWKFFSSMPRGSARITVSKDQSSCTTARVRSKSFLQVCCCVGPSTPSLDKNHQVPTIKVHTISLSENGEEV
The data set can be described thus: Displacement of [3H]prazosin from recombinant human alpha 1A adreno receptor at 10^-6 M after 60 mins by radiometric scintillation counting analysis relative to control.

Data set [14] concerns the target Histamine H1 receptor (Homo sapiens) (UniProt P35367). The data set can be described thus: Displacement of [3H]pyrilamine from recombinant human H1 receptor at 10^-6 M after 60 mins by radiometric scintillation counting analysis relative to control.
Data set [15] addresses T6, Muscarinic acetylcholine receptor M1 (Homo sapiens) (UniProt P11229).
T6 sequence (whole entry): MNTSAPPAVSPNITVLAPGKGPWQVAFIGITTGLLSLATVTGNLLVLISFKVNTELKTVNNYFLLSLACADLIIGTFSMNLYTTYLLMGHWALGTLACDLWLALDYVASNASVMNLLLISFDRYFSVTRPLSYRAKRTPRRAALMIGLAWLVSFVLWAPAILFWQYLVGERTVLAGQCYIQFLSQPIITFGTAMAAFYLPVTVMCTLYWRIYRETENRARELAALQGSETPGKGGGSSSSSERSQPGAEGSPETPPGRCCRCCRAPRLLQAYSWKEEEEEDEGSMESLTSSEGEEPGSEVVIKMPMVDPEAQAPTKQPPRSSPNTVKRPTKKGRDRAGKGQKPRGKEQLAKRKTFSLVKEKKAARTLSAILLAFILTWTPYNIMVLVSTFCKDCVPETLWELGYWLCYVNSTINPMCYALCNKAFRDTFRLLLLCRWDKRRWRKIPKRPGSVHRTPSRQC
The data set is described as follows: Displacement of [3H]pyrilamine from recombinant human M1 receptor at 10^-6 M after 60 mins by radiometric scintillation counting analysis relative to control.

The target of data set [16] is T4, 5-HT2C receptor. The data set can be described thus: Antagonist activity at 5-HT2CR (unknown origin) at 10^-6 M relative to control.
Data set [17] concerns the target hERG (KCNH2) (Homo sapiens, UniProt Q12809). The data set is described as follows: Inhibition of human ERG at 10^-6 M relative to control.
Data set [18] concerns the target T7, P-gp (ABCB1) (Homo sapiens, UniProt P08183). The data set can be described thus: Substrate activity at Pgp (unknown origin) assessed as permeability from apical to basolateral side by cell based assay. It is filed as ADME. The following applies: not told.
Data set [19] deals with T7, P-gp (ABCB1). The data set can be described thus: Substrate activity at Pgp (unknown origin) assessed as permeability from basolateral to apical side by cell based assay. It is filed as ADME. The settings on record: not told.
The test system of data set [20] is HepG2. The data set is described as follows: Cytotoxicity against human HepG2 cells assessed as reduction in cell viability after 24 hrs by presto-blue assay. The following applies: HepG2, 24 h.
For data set [21], the system named is HepG2. The data set can be described thus: Cytotoxicity against human HepG2 cells after 24 hrs by ToxiLight bioassay. The following applies: HepG2, 24 h.
Data set [22] has as its target Cytochrome P450 3A4 (Homo sapiens, UniProt P08684). The data set can be described thus: Inhibition of human CYP3A4 preincubated for 5 mins followed by NADPH addition and measured after 30 mins by luminescence based microplate reader analysis. It is filed as ADME.
Data set [23] addresses Cytochrome P450 2D6 (Homo sapiens, UniProt P10635). The data set can be described thus: Inhibition of human CYP2D6 preincubated for 5 mins followed by NADPH addition and measured after 45 mins by luminescence based microplate reader analysis. The data set is classed as ADME.
Data set [24] in a line: Mutagenicity in Salmonella typhimurium TA100 at 1 to 10 uM incubated for 90 mins followed by replating on medium without histidine and measured after 72 hrs by Ames test. The settings on record: salmonella enterica subsp. enterica serovar typhimurium. It is filed as toxicity.
Data set [25] is described as follows: Ratio of Cmax in brain to plasma in Wistar rat at 10 mg/kg, po. The data set is classed as ADME, organism-based. The settings on record: read-out: BPR.
Data set [26] has as its system Rattus norvegicus. The data set can be described thus: Reversal of phencyclidine-induced memory impairment in Sprague-Dawley rat at 3 to 10 mg/kg, po for 2 hrs followed by phencyclidine treatment 45 mins prior to testing by novel object recognition test. It is filed as functional, organism-based.

T2 sequence (P28223 whole entry): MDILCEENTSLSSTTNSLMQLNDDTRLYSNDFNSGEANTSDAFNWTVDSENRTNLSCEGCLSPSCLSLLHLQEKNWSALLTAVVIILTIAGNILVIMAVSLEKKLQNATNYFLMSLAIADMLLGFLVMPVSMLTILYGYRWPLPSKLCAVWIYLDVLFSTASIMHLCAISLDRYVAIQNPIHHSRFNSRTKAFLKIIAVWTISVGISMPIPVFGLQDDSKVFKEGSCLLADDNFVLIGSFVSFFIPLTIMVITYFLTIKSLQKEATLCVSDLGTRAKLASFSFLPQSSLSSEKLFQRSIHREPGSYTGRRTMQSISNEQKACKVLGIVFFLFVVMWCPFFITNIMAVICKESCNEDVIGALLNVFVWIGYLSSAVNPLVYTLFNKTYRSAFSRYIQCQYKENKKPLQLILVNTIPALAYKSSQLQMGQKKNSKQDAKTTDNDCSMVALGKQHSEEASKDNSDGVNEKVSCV
T1 sequence (P50406 whole entry): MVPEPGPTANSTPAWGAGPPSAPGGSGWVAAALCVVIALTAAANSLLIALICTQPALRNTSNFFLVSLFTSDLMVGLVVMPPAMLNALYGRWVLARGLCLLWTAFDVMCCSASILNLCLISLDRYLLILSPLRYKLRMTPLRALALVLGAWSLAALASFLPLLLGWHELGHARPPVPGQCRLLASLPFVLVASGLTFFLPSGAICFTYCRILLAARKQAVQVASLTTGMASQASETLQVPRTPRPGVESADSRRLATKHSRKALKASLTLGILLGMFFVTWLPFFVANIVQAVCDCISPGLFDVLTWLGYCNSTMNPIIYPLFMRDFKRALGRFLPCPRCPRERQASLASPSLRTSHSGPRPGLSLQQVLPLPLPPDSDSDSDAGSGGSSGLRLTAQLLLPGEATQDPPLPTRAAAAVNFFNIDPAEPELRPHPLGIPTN
T7 sequence (P08183 whole entry): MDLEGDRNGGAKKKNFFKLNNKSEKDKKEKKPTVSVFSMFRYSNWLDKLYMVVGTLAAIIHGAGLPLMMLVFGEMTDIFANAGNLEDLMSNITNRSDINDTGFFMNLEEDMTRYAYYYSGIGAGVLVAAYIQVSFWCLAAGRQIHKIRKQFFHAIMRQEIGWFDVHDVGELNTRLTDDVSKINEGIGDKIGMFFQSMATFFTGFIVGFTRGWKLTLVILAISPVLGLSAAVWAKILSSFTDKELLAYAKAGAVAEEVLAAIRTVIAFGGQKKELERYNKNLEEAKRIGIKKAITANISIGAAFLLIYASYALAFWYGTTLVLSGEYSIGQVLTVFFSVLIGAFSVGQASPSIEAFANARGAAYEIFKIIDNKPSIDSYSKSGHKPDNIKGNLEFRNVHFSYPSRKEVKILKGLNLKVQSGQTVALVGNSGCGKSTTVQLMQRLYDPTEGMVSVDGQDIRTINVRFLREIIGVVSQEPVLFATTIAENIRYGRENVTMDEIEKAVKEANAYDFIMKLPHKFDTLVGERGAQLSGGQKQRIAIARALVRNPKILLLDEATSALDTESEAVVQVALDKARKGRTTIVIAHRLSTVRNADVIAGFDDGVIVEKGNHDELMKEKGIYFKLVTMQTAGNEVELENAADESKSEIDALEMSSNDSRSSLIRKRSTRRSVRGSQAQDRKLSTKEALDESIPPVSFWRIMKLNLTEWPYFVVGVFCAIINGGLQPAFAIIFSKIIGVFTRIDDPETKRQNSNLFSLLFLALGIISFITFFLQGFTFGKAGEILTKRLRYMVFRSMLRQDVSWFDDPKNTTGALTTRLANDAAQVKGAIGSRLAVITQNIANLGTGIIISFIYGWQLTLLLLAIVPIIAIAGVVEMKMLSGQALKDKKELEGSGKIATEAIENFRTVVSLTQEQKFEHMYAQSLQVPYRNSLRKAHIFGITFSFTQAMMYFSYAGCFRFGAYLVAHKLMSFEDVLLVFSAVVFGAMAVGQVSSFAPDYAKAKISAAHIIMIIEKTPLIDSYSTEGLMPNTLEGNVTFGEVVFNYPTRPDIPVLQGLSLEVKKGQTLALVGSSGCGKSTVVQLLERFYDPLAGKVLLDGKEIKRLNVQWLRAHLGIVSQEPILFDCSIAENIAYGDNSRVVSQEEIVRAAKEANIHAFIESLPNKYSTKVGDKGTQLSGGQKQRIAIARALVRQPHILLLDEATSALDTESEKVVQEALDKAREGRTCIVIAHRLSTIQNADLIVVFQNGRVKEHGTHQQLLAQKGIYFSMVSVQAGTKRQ
hERG (KCNH2), sequence (Q12809 whole entry): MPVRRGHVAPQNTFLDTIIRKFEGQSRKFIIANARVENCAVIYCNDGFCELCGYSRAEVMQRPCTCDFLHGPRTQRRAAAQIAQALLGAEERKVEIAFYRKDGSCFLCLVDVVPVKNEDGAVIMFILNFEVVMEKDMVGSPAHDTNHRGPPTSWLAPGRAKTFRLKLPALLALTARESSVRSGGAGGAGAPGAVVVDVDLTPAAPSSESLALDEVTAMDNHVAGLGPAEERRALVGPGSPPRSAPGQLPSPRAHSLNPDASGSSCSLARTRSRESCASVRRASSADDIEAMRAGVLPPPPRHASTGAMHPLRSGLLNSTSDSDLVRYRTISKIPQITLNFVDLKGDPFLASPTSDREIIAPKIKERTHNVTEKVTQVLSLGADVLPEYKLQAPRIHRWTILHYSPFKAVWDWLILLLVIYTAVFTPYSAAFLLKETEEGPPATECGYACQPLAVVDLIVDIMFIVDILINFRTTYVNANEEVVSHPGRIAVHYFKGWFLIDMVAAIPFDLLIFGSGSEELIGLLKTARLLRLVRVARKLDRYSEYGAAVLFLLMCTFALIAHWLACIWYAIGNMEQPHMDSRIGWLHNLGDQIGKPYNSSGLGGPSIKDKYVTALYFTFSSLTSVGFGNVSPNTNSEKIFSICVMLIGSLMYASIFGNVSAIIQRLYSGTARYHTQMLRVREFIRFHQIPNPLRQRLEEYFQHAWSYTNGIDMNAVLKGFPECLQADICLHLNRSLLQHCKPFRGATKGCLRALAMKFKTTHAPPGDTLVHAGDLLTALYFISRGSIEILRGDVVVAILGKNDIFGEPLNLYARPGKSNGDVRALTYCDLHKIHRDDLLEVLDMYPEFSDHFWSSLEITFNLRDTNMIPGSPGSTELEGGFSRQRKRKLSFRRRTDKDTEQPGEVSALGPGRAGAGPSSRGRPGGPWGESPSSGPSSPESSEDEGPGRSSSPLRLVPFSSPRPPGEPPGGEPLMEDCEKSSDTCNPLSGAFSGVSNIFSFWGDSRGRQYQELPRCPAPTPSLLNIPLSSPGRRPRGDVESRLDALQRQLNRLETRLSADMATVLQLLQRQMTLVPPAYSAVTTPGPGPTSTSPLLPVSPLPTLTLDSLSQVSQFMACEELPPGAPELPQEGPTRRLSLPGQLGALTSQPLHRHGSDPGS
Cytochrome P450 3A4, sequence (P08684 whole entry): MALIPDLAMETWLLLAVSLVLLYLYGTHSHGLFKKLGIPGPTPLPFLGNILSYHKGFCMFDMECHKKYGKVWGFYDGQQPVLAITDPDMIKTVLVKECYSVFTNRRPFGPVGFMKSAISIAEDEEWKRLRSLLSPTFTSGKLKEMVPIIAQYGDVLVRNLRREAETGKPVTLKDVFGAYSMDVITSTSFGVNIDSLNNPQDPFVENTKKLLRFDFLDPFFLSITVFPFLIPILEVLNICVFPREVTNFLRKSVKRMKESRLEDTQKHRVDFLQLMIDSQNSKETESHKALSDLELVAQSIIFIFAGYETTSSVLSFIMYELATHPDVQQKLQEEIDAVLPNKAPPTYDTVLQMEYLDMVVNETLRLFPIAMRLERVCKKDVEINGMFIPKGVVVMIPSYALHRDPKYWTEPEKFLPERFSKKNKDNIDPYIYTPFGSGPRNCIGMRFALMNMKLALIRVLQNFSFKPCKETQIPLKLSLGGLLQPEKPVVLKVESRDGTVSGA

Turning to `Oc1ccc(-c2ccc(CNCCc3c[nH]c4ccc(F)cc34)o2)cc1`, the pKi in data set [1] is 8.70; in data set [2], 7.96; in data set [3], 6.00; in [4], 6.05; in data set [5], 6.42. In addition, the inhibition at 1 µM in [6] came to 99%. Besides, the half-life at 1 h in [7] (microsomes) was 6 min. This compound showed an intrinsic clearance (microsomal CLint) at 1 h in data set [8] (microsomes) of 251 µL/min/mg.

As for `Oc1ccc(-c2ccc(CNCCc3c[nH]c4ncc(F)cc34)o2)cc1`, the pKi is 7.60 in [1], 7.49 in data set [2], 5.21 in data set [3] and 4.86 in data set [4]. In data set [7] (liver microsomes), this compound had a half-life at 1 h of 14 min. For the same compound, in [9], the Kb is 0.027 µM. Also, the inhibition is -1.3% in data set [10]; 8.9% in data set [11]; 19.1% in data set [12]; 35.5% in data set [13]; 3.2% in data set [14]; 4% in [15]. Moreover, the inhibition at 1 µM in [16] was 59.9%; in [17], 42.2%. Also, the Papp A→B in data set [18] amounted to 8.87 ×10⁻⁶ cm/s. Moreover, in [19], the Papp B→A was found to be 3.43 ×10⁻⁶ cm/s. The pIC50 was 5.29 in data set [20], 5.21 in [21], 5.11 in data set [22] and 5.08 in [23]. In data set [24], the Activity entry is “Non-Toxic”. Further, in [25], the Kp is 0.7. Also, in data set [26], the outcome was Active. In addition, the intrinsic metabolic clearance (microsomal CLint) at 1 h in data set [8] (liver microsomes) turned out to be 103 µL/min/mg.

Broadly, the pKi is the negative decadic logarithm of the Ki, by convention in mol/L. A higher pKi goes with a low Ki. The inhibition is the change of the read-out against control, counted positive when it falls. Broadly, the half-life is the time needed for the level to fall by half in the phase considered. In general, microsomal CLint refers to a measure of how fast metabolising enzymes remove a compound, apart from limits set by blood flow. A higher microsomal CLint goes with rapid turnover. What is called Kb is the equilibrium dissociation constant of an antagonist, usually derived from a functional assay. One may read the Papp A→B as the apparent permeability from the apical to the basolateral side of a cell layer. As usually defined, the Papp B→A is the apparent permeability from the basolateral to the apical side of a cell layer. Broadly, the pIC50 is the negative decadic logarithm of the IC50, by convention in mol/L.
